Experimental data reported in the SangsterLogP compilation.

Experiment: method code SF-RC, from DOI: 10.1021/jf60225a019, PMID: 546944
CCOc1ccc(C(c2ccc(OCC)cc2)C(Cl)Cl)cc1 gave a logP of 3.65.
For CCOc1ccc(C(c2ccc(OCC)cc2)C(C)(Cl)Cl)cc1, the logP was 3.64.
With CCOc1ccc(C(c2ccc(OCC)cc2)C(C)(C)C)cc1 the logP was 3.16.
CCOc1ccc(C(c2ccc(OCC)cc2)C(C)[N+](=O)[O-])cc1 (stereo unspecified) showed a logP of 3.45.
With CCOc1ccc(C(c2ccc(OCC)cc2)C(C)Cl)cc1 (stereo unspecified) the logP was 3.58.
CCOc1ccc(C(c2ccc(C)cc2)C(C)Cl)cc1 (stereo unspecified) gave a logP of 3.19.
For CCOc1ccc(C(c2ccc(C)cc2)C(C)[N+](=O)[O-])cc1 (stereo unspecified), the logP was 3.46.
COc1ccc(C(c2ccc(OC)cc2)C(C)(C)C)cc1 gave a logP of 3.57.
For CCOc1ccc(C(c2ccc(C)cc2)C(C)C)cc1 (stereo unspecified), the logP was 3.55.
Compound CCOc1ccc(C(c2ccc(OCC)cc2)C(C)C)cc1 has a logP of 3.61.
With CCOc1ccc(C(c2ccc(OCC)cc2)C(C)(C)Cl)cc1 the logP was 3.25.
